According to patent US7223773B2, “4-oxoquinolizine antibacterial agent having 2-pyridone skeleton as partial structure” (Salo Pharmaceutical Co., Ltd., priority 2001, dated 2007):
≈ marks a conversion by molar mass, not a printed value.

Experiments:
Assay type in all cases: cell-based
[1] = system: Bacillus subtilis JCM 2499; assay: in vitro antibacterial activity, agar plate dilution method (MIC); conditions: JCM2499, read-out: Antimicrobial spectrum MIC
Procedure: (§1) The in vitro antibacterial activities of the compounds provided by the present invention were tested by a standard method of Chemotherapy Society of Japan, i.e. an agar plate dilution method disclosed in CHEMOTHERAPY Vol. 29, pages 76–79, 1981, and the activities of them on anaerobic bacteria were tested by a method disclosed in CHEMOTHERAPY Vol. 27, 559–590, 1979. The results were shown in terms of the minimum inhibition concentration (MIC, μg/ml) for the growth of the bacteria.

[2] = system: Branhamella catarrhalis IID 5233; assay: as above; conditions: Moraxella catarrhalis, IID5233, read-out: Antimicrobial spectrum MIC
Procedure: as §1

[3] = system: Enterococcus faecalis CSJ 1212; assay: as above; conditions: CSJ1212, read-out: Antimicrobial spectrum MIC
Procedure: as §1

[4] = system: Enterococcus faecalis RIMD 3116001; assay: as above; conditions: RIMD3116001, read-out: Antimicrobial spectrum MIC
Procedure: as §1

[5] = system: Escherichia coli IFO 12734; assay: as above; conditions: IFO12734, read-out: Antimicrobial spectrum MIC
Procedure: as §1

[6] = system: Haemophilus influenzae IID 984; assay: as above; conditions: IID984, read-out: Antimicrobial spectrum MIC
Procedure: as §1

[7] = system: Klebsiella pneumoniae IID 865; assay: as above; conditions: IID865, read-out: Antimicrobial spectrum MIC
Procedure: as §1

[8] = system: Micrococcus luteus KI 3122; assay: as above; conditions: KI3122, read-out: Antimicrobial spectrum MIC
Procedure: as §1

[9] = system: Pseudomonas aeruginosa CSJ 1853; assay: as above; conditions: CSJ1853, read-out: Antimicrobial spectrum MIC
Procedure: as §1

[10] = system: Staphylococcus aureus Clin-211(MRSA); assay: as above; conditions: read-out: Antimicrobial spectrum MIC
Procedure: as §1

[11] = system: Staphylococcus aureus IFO 13276; assay: as above; conditions: IFO13276, read-out: Antimicrobial spectrum MIC
Procedure: as §1

[12] = system: Staphylococcus aureus IID 803(Smith); assay: as above; conditions: IID803, read-out: Antimicrobial spectrum MIC
Procedure: as §1

[13] = system: Staphylococcus aureus JCM 2874; assay: as above; conditions: JCM2874, read-out: Antimicrobial spectrum MIC
Procedure: as §1

[14] = system: Staphylococcus epidermidis IFO 12993; assay: as above; conditions: IFO12993, read-out: Antimicrobial spectrum MIC
Procedure: as §1

[15] = system: Streptococcus pneumoniae IID 553; assay: as above; conditions: IID553, read-out: Antimicrobial spectrum MIC
Procedure: as §1

[16] = system: Bacteroides fragilis GAI 0675; assay: in vitro antibacterial activity on anaerobic bacteria (MIC); conditions: GAI0675; Bacteroides fragilis GAI 0675, anaerobic; read-out: Antimicrobial spectrum MIC
Procedure: as §1

[17] = system: Bacteroides thetaiotaomicron ATCC 29741; assay: as above; conditions: ATCC29741; Bacteroides thetaiotaomicron ATCC 29741, anaerobic; read-out: Antimicrobial spectrum MIC
Procedure: as §1

[18] = system: Propionibacterium acnes JCM 6425; assay: as above; conditions: Cutibacterium acnes, JCM6425; Propionibacterium acnes JCM 6425, anaerobic; read-out: Antimicrobial spectrum MIC
Procedure: as §1

| SMILES | MIC [1] [µg/mL] | MIC [2] [µg/mL] | MIC [3] [µg/mL] | MIC [4] [µg/mL] | MIC [5] [µg/mL] | MIC [6] [µg/mL] | MIC [7] [µg/mL] | MIC [8] [µg/mL] | MIC [9] [µg/mL] | MIC [10] [µg/mL] | MIC [11] [µg/mL] | MIC [12] [µg/mL] | MIC [13] [µg/mL] | MIC [14] [µg/mL] | MIC [15] [µg/mL] | MIC [16] [µg/mL] | MIC [17] [µg/mL] | MIC [18] [µg/mL] |
| --- | --- | --- | --- | --- | --- | --- | --- | --- | --- | --- | --- | --- | --- | --- | --- | --- | --- | --- |
| Cc1c(-c2ccc(C#N)cc2)ccn2c(=O)c(C(=O)O)cc(C3CC3)c12 [Example 36, 8-(4-Cyanophenyl)-1-cyclopropyl-9-methyl-4-oxo-4H-quinolizine-3-carboxylic acid] | ≤ 0.004 | 0.031 (≈ 0.09 µM) | 0.25 (≈ 0.726 µM) | 0.25 (≈ 0.726 µM) | 0.25 (≈ 0.726 µM) | 0.063 (≈ 0.183 µM) | 0.031 (≈ 0.09 µM) | 0.125 (≈ 0.363 µM) | 0.5 (≈ 1.45 µM) | 0.125 (≈ 0.363 µM) | 0.016 (≈ 0.0465 µM) | 0.008 (≈ 0.0232 µM) | 0.016 (≈ 0.0465 µM) | 0.016 (≈ 0.0465 µM) | 0.5 (≈ 1.45 µM) | 0.125 (≈ 0.363 µM) | 0.5 (≈ 1.45 µM) | 0.063 (≈ 0.183 µM) |
| CC(=NO)c1ccc(-c2ccn3c(=O)c(C(=O)O)cc(C4CC4)c3c2C)cc1 [Example 38, 1-Cyclopropyl-8-[4-(1-hydroxyiminoethyl)phenyl]-9-methyl-4-oxo-4H-quinolizine-3-carboxylic acid] | ≤ 0.004 | 0.016 (≈ 0.0425 µM) | 0.125 (≈ 0.332 µM) | 0.125 (≈ 0.332 µM) | 0.125 (≈ 0.332 µM) | 0.125 (≈ 0.332 µM) | 0.031 (≈ 0.0824 µM) | 0.125 (≈ 0.332 µM) | 2 (≈ 5.31 µM) | 0.063 (≈ 0.167 µM) | 0.008 (≈ 0.0213 µM) | ≤ 0.004 | ≤ 0.004 | 0.016 (≈ 0.0425 µM) | 0.125 (≈ 0.332 µM) | 0.063 (≈ 0.167 µM) | 0.25 (≈ 0.664 µM) | – |
| Cc1c(-c2ccc(NCCO)cc2)ccn2c(=O)c(C(=O)O)cc(C3CC3)c12 [Example 46, 1-cyclopropyl-8-[4-(2-hydroxyethylamino)phenyl]-9-methyl-4-oxo-4H-quinolizine-3-carboxylic acid] | ≤ 0.004 | 0.016 (≈ 0.0423 µM) | 0.063 (≈ 0.166 µM) | 0.063 (≈ 0.166 µM) | 0.125 (≈ 0.33 µM) | 0.031 (≈ 0.0819 µM) | 0.063 (≈ 0.166 µM) | 0.125 (≈ 0.33 µM) | 1 (≈ 2.64 µM) | 0.031 (≈ 0.0819 µM) | ≤ 0.004 | ≤ 0.004 | ≤ 0.004 | 0.008 (≈ 0.0211 µM) | 0.125 (≈ 0.33 µM) | 0.125 (≈ 0.33 µM) | 0.25 (≈ 0.661 µM) | 0.016 (≈ 0.0423 µM) |
| Cc1c(-c2ccc(N)c(F)c2)ccn2c(=O)c(C(=O)O)cc(C3CC3)c12 [Example 97, 8-(4-amino-3-fluorophenyl)-1-cyclopropyl-9-methyl-4-oxo-4H-quinolizine-3-carboxylic acid] | – | 0.031 (≈ 0.088 µM) | 0.125 (≈ 0.355 µM) | 0.25 (≈ 0.709 µM) | 0.063 (≈ 0.179 µM) | 0.031 (≈ 0.088 µM) | 0.031 (≈ 0.088 µM) | 0.125 (≈ 0.355 µM) | 0.25 (≈ 0.709 µM) | 0.063 (≈ 0.179 µM) | 0.016 (≈ 0.0454 µM) | ≤ 0.004 | ≤ 0.004 | 0.016 (≈ 0.0454 µM) | 0.25 (≈ 0.709 µM) | 0.031 (≈ 0.088 µM) | 0.125 (≈ 0.355 µM) | 0.031 (≈ 0.088 µM) |
| CCOC(=O)c1cc(C2CC2)c2c(C)c(-c3cc(F)c(CN)s3)ccn2c1=O [Example 111, Ethyl 8-(5-aminomethyl-4-fluorothiophen-2-yl)-1-cyclopropyl-9-methyl-4-oxo-4H-quinolizine-3-carboxylate] | – | 0.031 (≈ 0.0774 µM) | 0.063 (≈ 0.157 µM) | 0.125 (≈ 0.312 µM) | 0.063 (≈ 0.157 µM) | 0.008 (≈ 0.02 µM) | 0.008 (≈ 0.02 µM) | 0.25 (≈ 0.624 µM) | 0.25 (≈ 0.624 µM) | 0.25 (≈ 0.624 µM) | 0.016 (≈ 0.04 µM) | 0.016 (≈ 0.04 µM) | 0.031 (≈ 0.0774 µM) | 0.031 (≈ 0.0774 µM) | 0.125 (≈ 0.312 µM) | 0.25 (≈ 0.624 µM) | 0.5 (≈ 1.25 µM) | 0.125 (≈ 0.312 µM) |
| Cc1c(-c2ccc(CN)o2)ccn2c(=O)c(C(=O)O)cc(C3CC3)c12 [Example 113, 8-(5-Aminomethylfuran-2-yl)-1-cyclopropyl-9-methyl-4-oxo-4H-quinolizine-3-carboxylic acid] | 0.016 (≈ 0.0473 µM) | 0.125 (≈ 0.369 µM) | 0.5 (≈ 1.48 µM) | 0.5 (≈ 1.48 µM) | 0.063 (≈ 0.186 µM) | 0.031 (≈ 0.0916 µM) | 0.008 (≈ 0.0236 µM) | 0.25 (≈ 0.739 µM) | 1 (≈ 2.96 µM) | – | 0.031 (≈ 0.0916 µM) | – | 0.063 (≈ 0.186 µM) | – | 0.5 (≈ 1.48 µM) | 1 (≈ 2.96 µM) | 2 (≈ 5.91 µM) | – |
